Measurements published in ChEMBL document CHEMBL5154688, “Design, Synthesis, and Characterization of I-BET567, a Pan-Bromodomain and Extra Terminal (BET) Bromodomain Oral Candidate” (J Med Chem, 2022).
pIC50: −log10 of the molar value. ≈ marks a conversion by molar mass, not a printed value.

Key:
[1] = target: T1, Bromodomain-containing protein 4 (Homo sapiens, UniProt O60885); assay: Inhibition of BRD4 BD1 (unknown origin) incubated for 30 mins in presence of fluorescent ligand by TR-FRET method
[2] = target: T1, Bromodomain-containing protein 4; assay: Inhibition of BRD4 BD2 (unknown origin) incubated for 30 mins in presence of fluorescent ligand by TR-FRET method
[3] = Solubility of the compound at pH 6.5 in fast state simulated intestinal fluid incubated for 16 hrs by HPLC analysis; type: physicochemical; conditions: fasted state simulated intestinal fluid (FaSSIF)
[4] = Artificial membrane permeability of the compound; type: ADME; conditions: PAMPA; read-out: permeability
[5] = Solubility of the compound in saline by CLND method; type: physicochemical
C-C motif chemokine 2 = C-C motif chemokine 2 (Homo sapiens, UniProt P13500); assay: Inhibition of MCP-1 in LPS-stimulated human whole blood incubate for 24 hrs by immuno assay; type: tissue-based
Sequence of C-C motif chemokine 2 (P13500 whole entry): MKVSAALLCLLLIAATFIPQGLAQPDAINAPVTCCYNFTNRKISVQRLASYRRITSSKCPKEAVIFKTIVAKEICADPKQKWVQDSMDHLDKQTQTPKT

Cytochrome P450 3A4 = Cytochrome P450 3A4 (Homo sapiens, UniProt P08684); assay: Inhibition of CYP3A4 (unknown origin); type: ADME
Sequence of Cytochrome P450 3A4 (P08684 whole entry): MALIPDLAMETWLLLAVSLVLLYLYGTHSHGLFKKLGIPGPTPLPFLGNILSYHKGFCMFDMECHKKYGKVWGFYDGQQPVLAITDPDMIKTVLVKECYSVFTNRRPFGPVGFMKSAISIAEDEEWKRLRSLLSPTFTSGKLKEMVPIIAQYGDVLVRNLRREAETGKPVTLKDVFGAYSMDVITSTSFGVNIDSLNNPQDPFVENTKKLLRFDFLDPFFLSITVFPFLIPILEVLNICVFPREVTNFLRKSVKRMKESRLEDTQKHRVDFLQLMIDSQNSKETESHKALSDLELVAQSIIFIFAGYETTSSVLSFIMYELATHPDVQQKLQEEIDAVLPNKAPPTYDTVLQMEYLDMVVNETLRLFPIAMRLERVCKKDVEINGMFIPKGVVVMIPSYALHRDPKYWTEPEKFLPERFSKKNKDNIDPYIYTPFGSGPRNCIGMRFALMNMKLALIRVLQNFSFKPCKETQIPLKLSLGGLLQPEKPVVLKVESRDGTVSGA

[6] = target: Voltage-gated inwardly rectifying potassium channel KCNH2 (Homo sapiens, UniProt Q12809); assay: Inhibition of hERG; type: toxicity
Sequence of Voltage-gated inwardly rectifying potassium channel KCNH2 (Q12809 whole entry): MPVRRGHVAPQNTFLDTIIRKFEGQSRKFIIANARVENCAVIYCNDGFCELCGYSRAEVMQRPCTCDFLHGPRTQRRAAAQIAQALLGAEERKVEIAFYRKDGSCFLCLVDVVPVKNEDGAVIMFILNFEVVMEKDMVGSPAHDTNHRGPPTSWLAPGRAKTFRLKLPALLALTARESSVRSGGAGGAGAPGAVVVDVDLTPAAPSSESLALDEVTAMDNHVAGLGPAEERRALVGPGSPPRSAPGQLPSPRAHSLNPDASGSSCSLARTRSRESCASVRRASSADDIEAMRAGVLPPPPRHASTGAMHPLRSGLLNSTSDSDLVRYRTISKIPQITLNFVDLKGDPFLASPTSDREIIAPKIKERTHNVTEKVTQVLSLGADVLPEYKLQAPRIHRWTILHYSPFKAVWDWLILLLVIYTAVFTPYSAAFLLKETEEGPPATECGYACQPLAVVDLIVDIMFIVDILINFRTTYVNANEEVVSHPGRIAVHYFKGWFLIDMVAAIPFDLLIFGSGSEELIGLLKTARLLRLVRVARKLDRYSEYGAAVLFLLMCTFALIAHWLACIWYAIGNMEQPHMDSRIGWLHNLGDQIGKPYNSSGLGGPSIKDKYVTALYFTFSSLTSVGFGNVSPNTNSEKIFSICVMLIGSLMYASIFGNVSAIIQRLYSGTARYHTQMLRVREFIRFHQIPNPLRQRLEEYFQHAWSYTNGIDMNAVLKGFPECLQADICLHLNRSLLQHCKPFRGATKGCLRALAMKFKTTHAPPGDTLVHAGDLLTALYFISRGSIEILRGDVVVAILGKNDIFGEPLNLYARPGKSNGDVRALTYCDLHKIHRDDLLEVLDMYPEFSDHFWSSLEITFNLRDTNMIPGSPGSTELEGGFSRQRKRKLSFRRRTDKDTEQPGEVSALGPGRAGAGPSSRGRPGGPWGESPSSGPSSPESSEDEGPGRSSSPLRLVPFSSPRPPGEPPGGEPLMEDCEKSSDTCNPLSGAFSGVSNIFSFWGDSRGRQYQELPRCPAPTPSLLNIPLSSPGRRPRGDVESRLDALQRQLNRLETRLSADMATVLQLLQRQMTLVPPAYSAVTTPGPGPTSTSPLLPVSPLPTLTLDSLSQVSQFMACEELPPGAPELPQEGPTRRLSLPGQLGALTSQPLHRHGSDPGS

[7] = Intrinsic clearance in dog hepatocytes incubated upto 45 mins by LC-MS/MS analysis; type: ADME, cell-based, Canis lupus familiaris, Hepatocyte; conditions: 0.75 h
[8] = Intrinsic clearance in human hepatocytes measured after 120 mins by LC-MS/MS analysis; type: ADME, cell-based, Hepatocyte; conditions: 2 h
[9] = Intrinsic clearance in rat hepatocytes after 60 mins by LC-MS/MS analysis; type: ADME, cell-based, Hepatocyte; conditions: 1 h

Structure (SMILES) | pIC50 [1] | pIC50 [2] | solubility at 16 h [3] [µg/mL] | Papp [4] [×10⁻⁶ cm/s] | solubility kinetic [5] [µg/mL] | pIC50 (C-C motif chemokine 2) | pIC50 (Cytochrome P450 3A4) | CLH [7] [mL/min/g] | CLH [8] [mL/min/g] | CLH [9] [mL/min/g] | pIC50 [6]
CC(=O)N1c2ccc(F)cc2[C@H](Nc2ccc(C#N)cn2)C[C@@H]1C | 6.10 | 6.50 | 558 (≈ 1720 µM) | 51 | – | – | – | – | – | – | –
CCNC(=O)c1ccc2c(c1)[C@H](Nc1ccc(C)cn1)C[C@H](C)N2C(C)=O | 6.10 | 6.80 | 44 (≈ 120 µM) | 25 | – | – | – | – | – | – | –
CC(=O)N1c2ccc(C#N)cc2[C@H](Nc2ccc(C#N)cn2)C[C@@H]1C | 6.30 | 6.80 | 279 (≈ 842 µM) | 31 | – | – | – | – | – | – | –
CCNC(=O)c1ccc2c(c1)[C@H](Nc1ccc(F)cn1)C[C@H](C)N2C(C)=O | 6.10 | 6.80 | – | 23 | ≥ 126 | – | – | – | – | – | –
CCNC(=O)c1ccc2c(c1)[C@H](Nc1ncc(Cl)cn1)C[C@H](C)N2C(C)=O | 7.00 | 7.10 | 82 (≈ 211 µM) | < 18 | – | – | – | – | – | – | –
CC(=O)N1c2ccc(C(N)=O)cc2[C@H](Nc2cccc(Cl)c2)C[C@@H]1C | 6.70 | 7.70 | 33 (≈ 92.2 µM) | 40 | – | – | – | – | – | – | –
CC(=O)N1c2ccc(C(N)=O)cc2[C@H](Nc2ccc(C)cn2)C[C@@H]1C | 6.10 | 6.80 | – | 8.2 | ≥ 143 | – | – | – | – | – | –
CC(=O)N1c2ccc(F)cc2[C@H](Nc2cnc(C)cn2)C[C@@H]1C | 5.90 | 6.20 | > 1000 | 52 | – | – | – | – | – | – | –
CC(=O)N1c2ccc(C(N)=O)cc2[C@H](Nc2ccc(Cl)cn2)C[C@@H]1C | 6.60 | 7.10 | 884 (≈ 2460 µM) | 15 | – | 6.40 | < 4.40 | – | – | – | < 4.30
CCNC(=O)c1ccc2c(c1)[C@H](Nc1ccc(Cl)cn1)C[C@H](C)N2C(C)=O | 6.50 | 7.10 | 90 (≈ 233 µM) | 35 | – | – | – | – | – | – | –
CCNC(=O)c1ccc2c(c1)[C@H](Nc1ccc(C#N)cn1)C[C@H](C)N2C(C)=O | 6.70 | 7.00 | > 1000 | 4.6 | – | 6.60 | < 4.40 | < 1.26 | < 0.87 | 4.3 | < 4.30

Further lines, with some results ahead:

pIC50 [1] | pIC50 [2] | solubility at 16 h [3] [µg/mL] | Papp [4] [×10⁻⁶ cm/s] | solubility kinetic [5] [µg/mL] | pIC50 (C-C motif chemokine 2) | pIC50 (Cytochrome P450 3A4) | CLH [7] [mL/min/g] | CLH [8] [mL/min/g] | CLH [9] [mL/min/g] | Structure (SMILES) | pIC50 [6]
6.30 | 6.00 | – | 0.3 | ≥ 73 | – | – | – | – | – | CCNC(=O)c1ccc2c(c1)[C@H](Nc1cnc(C#N)cn1)C[C@H](C)N2C(C)=O | –
5.90 | 5.90 | 955 (≈ 3110 µM) | 32 | – | – | – | – | – | – | CC(=O)N1c2ccccc2[C@H](Nc2cnc(C#N)cn2)C[C@@H]1C | –
6.30 | 6.30 | 60 (≈ 181 µM) | 19 | – | – | – | – | – | – | CC(=O)N1c2ccc(C#N)cc2[C@H](Nc2cnc(C#N)cn2)C[C@@H]1C | –
6.00 | 6.30 | 270 (≈ 911 µM) | 54 | – | – | – | – | – | – | CC(=O)N1c2ccccc2[C@H](Nc2cnc(C)cn2)C[C@@H]1C | –
5.90 | 6.00 | – | 30 | 99 (≈ 304 µM) | – | – | – | – | – | CC(=O)N1c2ccc(F)cc2[C@H](Nc2cnc(C#N)cn2)C[C@@H]1C | –
6.00 | 6.50 | 533 (≈ 1740 µM) | 48 | – | – | – | – | – | – | CC(=O)N1c2ccccc2[C@H](Nc2ccc(C#N)cn2)C[C@@H]1C | –
